Columns and labels:
Assay in all cases: -log10 GI50 (growth inhibition 50%) (-log10(M)); higher = more potent growth inhibition
600MPE = system: 600MPE
In short: (§1)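 Breast cancer cell lines were exposed to each compound for 72 hours at nine doses in 1:5 serial dilution, in triplicate, with a luminescence read-out against a time-zero plate. A Gompertz curve was fitted to the dose-response data by nonlinear least squares. The value is minus log10 of GI50, the molar concentration giving the set level of growth inhibition. Values equal to the top dose carry a < qualifier.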

HCC2185 = system: HCC2185
In short: as §1

MDAMB231 = system: MDAMB231
In short: as §1

184A1 = system: 184A1
In short: as §1

MDAMB415 = system: MDAMB415
In short: as §1

SUM159PT = system: SUM159PT
In short: as §1

MCF7 = system: MCF7
In short: as §1

HCC38 = system: HCC38
In short: as §1

MDAMB453 = system: MDAMB453
In short: as §1

BT549 = system: BT549
In short: as §1

MDAMB175VII = system: MDAMB175VII
In short: as §1

HCC1954 = system: HCC1954
In short: as §1

MCF12A = system: MCF12A
In short: as §1

HCC1419 = system: HCC1419
In short: as §1

MDAMB361 = system: MDAMB361
In short: as §1

HCC1143 = system: HCC1143
In short: as §1

ZR75B = system: ZR75B
In short: as §1

BT474 = system: BT474
In short: as §1

HCC1428 = system: HCC1428
In short: as §1

AU565 = system: AU565
In short: as §1

-log10 GI50 (HCC2185)	-log10 GI50 (MDAMB231)	-log10 GI50 (MDAMB415)	-log10 GI50 (MCF7)	-log10 GI50 (HCC38)	-log10 GI50 (MDAMB453)	-log10 GI50 (BT549)	-log10 GI50 (MDAMB175VII)	-log10 GI50 (HCC1954)	-log10 GI50 (HCC1419)	-log10 GI50 (MDAMB361)	-log10 GI50 (HCC1143)	-log10 GI50 (BT474)	-log10 GI50 (HCC1428)	SMILES	-log10 GI50 (600MPE)	-log10 GI50 (184A1)	-log10 GI50 (SUM159PT)	-log10 GI50 (MCF12A)	-log10 GI50 (ZR75B)	-log10 GI50 (AU565)
4.83	3.84	3.96	4.19	4.07	3.09	4.08	4.46	4.29	4	4.22	4.23	4.16	4.34	CNC(=O)c1cc(Oc2ccc(NC(=O)Nc3ccc(Cl)c(C(F)(F)F)c3)cc2)ccn1 [Sorafenib]	4.36	5.53	4.66	4.62	3.16	3.94
4.33	< 3.88	< 3.88	< 3.88	3.95	< 3.88	< 3.88	< 3.88	4.52	4.31	< 3.88	< 3.88	< 3.88	4.09	N#Cc1c(-c2ccccc2)cc(-c2cc(Br)ccc2O)[nH]c1=O [TCS PIM-11]	< 3.88	5.16	4.46	4.36	< 3.88	< 4.18

More lines, now with the values behind:

SMILES	-log10 GI50 (HCC2185)	-log10 GI50 (MDAMB231)	-log10 GI50 (MDAMB415)	-log10 GI50 (MCF7)	-log10 GI50 (HCC38)	-log10 GI50 (MDAMB453)	-log10 GI50 (BT549)	-log10 GI50 (MDAMB175VII)	-log10 GI50 (HCC1954)	-log10 GI50 (HCC1419)	-log10 GI50 (MDAMB361)	-log10 GI50 (HCC1143)	-log10 GI50 (BT474)	-log10 GI50 (HCC1428)	-log10 GI50 (600MPE)	-log10 GI50 (184A1)	-log10 GI50 (SUM159PT)	-log10 GI50 (MCF12A)	-log10 GI50 (ZR75B)	-log10 GI50 (AU565)
O=S(=O)(CC1CS1)c1ccc(Oc2ccccc2)cc1 (stereo not given) [SB-3CT]	4.33	< 3.78	4.77	< 4	4.31	< 3.78	5.17	< 4	< 4	< 3.78	< 3.78	< 4	4.99	4.24	< 4	< 3.78	4.85	< 3.78	4.62	< 4
CC(/C=C/C(=O)NO)=C\[C@@H](C)C(=O)c1ccc(N(C)C)cc1 [Trichostatin A]	4.79	5.26	4.73	5.18	5.22	5.22	5.13	5.3	4.96	4.9	5.09	4.77	5.01	5.73	5.19	4.73	5.23	4.71	5.3	5.44
CCCC(CCC)C(=O)O [Valproic acid]	2.88	2.16	3.06	2.64	3.05	3.15	2.57	2.96	2.52	2.93	2.82	2.66	3.03	3.13	2.52	3	2.91	2.74	2.71	2.85

— the supplement of paper PMC3937590
